Results from US5071955A, “Octopeptide exhibiting antimypertensive activity” (Nippon Suisan Kaisha, Ltd., priority 1988, dated 1991).
Peptide text beside a SMILES is read from it.

Experiments:
[1] = molecular target: Angiotensin I converting enzyme (ACE) (Homo sapiens, UniProt P12821); experiment: Angiotensin I converting enzyme (ACE) inhibitory activity, method of Cushman and Cheung; type: biochemical; settings: Hip-His-Leu substrate, pH 8.3, 37° C., 30 min
Protocol: A prescribed amount of sample was added to a solution composed of 1-10 mU ACE, 2.5 mM Hip-His-Leu substrate (produced by Peptide Research Institute), 100 mM potassium-phosphate buffer (pH 8.3), and 300 mM NaCl. 0.25 ml of this mixture was incubated at 37° C. for 30 min, and the enzymatic reaction was stopped by adding 0.25 ml of 1N HCl. 1.5 ml of ethylacetate was then added and the mixture was vigorously shaken for 10 second, following which the hippuric acid produced was extracted. […] A blank (ODsbl) was made by adding 1N HCl prior to incubation, and the difference in absorbance, ODs-ODsbl, was determined. […] ACE inhibitory activity was calculated using the following equation: [formula]

Wistar rats = experiment: Intravenous LD50 in Wistar rats; type: in vivo; settings: in physiological saline, 6 week old male and female Wistar rats, 2 week observation
Protocol: (§1) The peptide of formula (I) prepared in Example 2 was dissolved in physiological saline.
(§2) Various concentrations of the peptide in physiological saline were intravenously administered to test animal groups each consisting of 6 week old male (10/group) or female (10/group) ICR mice, or 6 week old male (10/group) or female (10/group) Wistar rats. The LD50 value was determined after a 2 week observation period.

ICR mice = experiment: Intravenous LD50 in ICR mice; type: in vivo; settings: in physiological saline, 6 week old male and female ICR mice, 2 week observation
Protocol: as §1, §2

Sequence of Angiotensin I converting enzyme (ACE) (P12821 30-1306, species assumed): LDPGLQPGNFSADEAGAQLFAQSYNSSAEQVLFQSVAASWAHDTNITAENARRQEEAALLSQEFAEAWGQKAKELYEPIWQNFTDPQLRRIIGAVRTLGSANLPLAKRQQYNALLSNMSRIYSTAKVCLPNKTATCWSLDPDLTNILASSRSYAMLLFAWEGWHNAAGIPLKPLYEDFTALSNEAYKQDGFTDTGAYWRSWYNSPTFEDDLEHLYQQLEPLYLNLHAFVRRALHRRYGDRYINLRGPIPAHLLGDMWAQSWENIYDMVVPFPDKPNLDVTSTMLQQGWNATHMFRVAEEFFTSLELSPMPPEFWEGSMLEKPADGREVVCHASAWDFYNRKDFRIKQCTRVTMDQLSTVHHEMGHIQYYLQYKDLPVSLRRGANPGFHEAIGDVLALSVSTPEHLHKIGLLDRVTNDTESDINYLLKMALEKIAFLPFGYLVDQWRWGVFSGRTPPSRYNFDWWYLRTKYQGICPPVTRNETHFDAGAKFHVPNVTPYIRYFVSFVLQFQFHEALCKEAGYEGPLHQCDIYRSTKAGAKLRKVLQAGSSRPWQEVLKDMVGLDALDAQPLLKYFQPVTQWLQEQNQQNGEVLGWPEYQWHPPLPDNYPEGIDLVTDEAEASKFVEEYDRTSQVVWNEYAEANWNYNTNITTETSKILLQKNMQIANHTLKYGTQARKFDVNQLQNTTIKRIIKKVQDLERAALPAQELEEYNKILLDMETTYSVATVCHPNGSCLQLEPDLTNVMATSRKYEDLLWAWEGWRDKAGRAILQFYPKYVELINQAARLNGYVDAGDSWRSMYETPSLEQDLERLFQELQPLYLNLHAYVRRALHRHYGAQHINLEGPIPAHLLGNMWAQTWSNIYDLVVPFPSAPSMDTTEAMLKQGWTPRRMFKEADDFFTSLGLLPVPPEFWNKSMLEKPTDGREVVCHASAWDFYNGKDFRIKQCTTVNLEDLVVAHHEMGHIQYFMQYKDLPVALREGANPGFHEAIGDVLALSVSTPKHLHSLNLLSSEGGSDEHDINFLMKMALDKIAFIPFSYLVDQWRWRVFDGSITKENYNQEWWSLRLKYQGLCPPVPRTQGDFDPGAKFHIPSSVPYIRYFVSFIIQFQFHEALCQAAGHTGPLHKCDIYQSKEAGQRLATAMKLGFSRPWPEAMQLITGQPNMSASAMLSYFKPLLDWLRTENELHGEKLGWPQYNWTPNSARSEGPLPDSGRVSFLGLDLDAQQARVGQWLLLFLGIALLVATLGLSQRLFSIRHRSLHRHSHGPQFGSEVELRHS

SMILES	IC50 ([1]; sample origin: Fish)	IC50 ([1]; sample origin: Peptide Synthesis)	LD50 (Wistar rats)	LD50 (ICR mice)	IC50 ([1]; comparison samples of Table 1)
CC[C@H](C)[C@H](NC(=O)[C@H](Cc1c[nH]cn1)NC(=O)[C@@H](NC(=O)[C@@H]1CCCN1)[C@@H](C)O)C(=O)N[C@@H](CCCCN)C(=O)N[C@@H](Cc1c[nH]c2ccccc12)C(=O)NCC(=O)N[C@@H](CC(=O)O)C(=O)O [Peptide (I), Pro-Thr-His-Ile-Lys-Trp-Gly-Asp] (H-PTHIKWGD-OH)	700 nM	600 nM	greater than 10 mg/kg	greater than 10 mg/kg	–
CC(C)C[C@H](NC(=O)[C@@H](NC(=O)[C@@H](N)CC(C)C)C(C)C)C(=O)O [Tripeptide, Leu-Val-Leu, reference compound] (H-Leu-Val-Leu-OH)	–	–	–	–	1700 nM
